These results are taken from patent publication US20230348447A1, “OXAZOLIDINONE COMPOUNDS, LIPOSOME COMPOSITIONS COMPRISING OXAZOLIDINONE COMPOUNDS AND METHOD OF USE THEREOF” (priority 2020, published 2023).

Assay [1] relates to M. tuberculosis H37Rv. As to the kind of experiment: microbe, parasite or virus in culture. As to conditions: for MIC: Mycobacterium tuberculosis, H37RV, read-out: MIC, µg/mL in M.tuberculosis strain H37Rv; for MIC, µg/mL in M.tuberculosis strain H37Rv: MABA assay, drug-susceptible strain H37Rv. The assay is classed as cell-based, Mycobacterium tuberculosis. For orientation: Resazurin is reduced to fluorescent resorufin, in cell work by metabolically active cells.

Assay [2] deals with M. tuberculosis MDR strain M70. The assay is described as follows: microbe, parasite or virus in culture. The assay is classed as cell-based, Mycobacterium tuberculosis. To be noted: for MIC: Mycobacterium tuberculosis, read-out: MIC, µg/mL in M.tuberculosis strain M70; for MIC, µg/mL in M.tuberculosis strain M70: MABA assay.
For assay [3], the system named is M. tuberculosis MDR strain M14. As to the kind of experiment: microbe, parasite or virus in culture. The assay is classed as cell-based, Mycobacterium tuberculosis. As to conditions: for MIC: Mycobacterium tuberculosis, read-out: MIC, µg/mL in M.tuberculosis strain M14; for MIC, µg/mL in M.tuberculosis strain M14: MABA assay.
For assay [4], the system named is M. tuberculosis MDR strain M28. The assay is described as follows: microbe, parasite or virus in culture. The assay is classed as cell-based, Mycobacterium tuberculosis. To be noted: for MIC: Mycobacterium tuberculosis, read-out: MIC, µg/mL in M.tuberculosis strain M28; for MIC, µg/mL in M.tuberculosis strain M28: MABA assay.
The test system of assay [5] is M. tuberculosis MDR strain M94. As to the kind of experiment: microbe, parasite or virus in culture. To be noted: for MIC: Mycobacterium tuberculosis, read-out: MIC, µg/mL in M.tuberculosis strain M94; for MIC, µg/mL in M.tuberculosis strain M94: MABA assay. The assay is classed as cell-based, Mycobacterium tuberculosis.
The subject of assay [6] is M. tuberculosis MDR strain TN5904. The assay is described as follows: microbe, parasite or virus in culture. The class given is cell-based, Mycobacterium tuberculosis. To be noted: for MIC: Mycobacterium tuberculosis, read-out: MIC, µg/mL in M.tuberculosis strain TN5904; for MIC, µg/mL in M.tuberculosis strain TN5904: MABA assay.
Assay [7] shares this test system. The arrangement: key: R- resistant; S -susceptible. To be noted: cited from earlier work.
Assay [8] relates to M. tuberculosis MDR strain M94. The arrangement: key: R- resistant; S -susceptible. To be noted: cited from earlier work.
The test system of assay [9] is M. tuberculosis MDR strain M70. Also noted: key: R- resistant; S -susceptible. As to conditions: cited from earlier work.
The test system of assay [10] is M. tuberculosis MDR strain M28. Also noted: key: R- resistant; S -susceptible. To be noted: cited from earlier work.
The subject of assay [11] is M. tuberculosis MDR strain M14. The arrangement: key: R- resistant; S -susceptible. As to conditions: cited from earlier work.

Values after ≈ are worked out from the molar mass of the structure shown.

In the case of `Cl.Cn1nnc(-c2ccc(-c3ccc(N4C[C@H](CN)OC4=O)cc3F)cn2)n1` [AKG-3], the MIC in [1] was 0.125 µg/mL; in assay [2], at most 0.015 µg/mL; in [3], 0.03 µg/mL; in assay [4], 0.06 µg/mL; in assay [5], 0.06 µg/mL; in assay [6], 0.06 µg/mL.
Regarding `CN(C)CCn1nnc(-c2ccc(-c3ccc(N4C[C@H](CO)OC4=O)cc3F)cn2)n1` [AKG-16], the MIC was 0.125 µg/mL (≈ 0.292 µM) in assay [2]; 0.06 µg/mL (≈ 0.14 µM) in assay [3]; 0.25 µg/mL (≈ 0.585 µM) in [4]; 0.06 µg/mL (≈ 0.14 µM) in [5]; 0.06 µg/mL (≈ 0.14 µM) in [6].
`CN(C)CCn1nnc(-c2ccc(-c3ccc(N4C[C@H](CN)OC4=O)cc3F)cn2)n1.Cl` [AKG-28]: the MIC in assay [1] was 0.03 µg/mL; in assay [2] it was at most 0.004 µg/mL; in assay [3], 0.015 µg/mL; in [4], 0.015 µg/mL; in assay [5], 0.015 µg/mL; in [6], 0.015 µg/mL.
Take `Cl.Cl.NCCn1nnc(-c2ccc(-c3ccc(N4C[C@H](CN)OC4=O)cc3F)cn2)n1` [AKG-29]: the MIC is 0.25 µg/mL in assay [1]; at most 0.03 µg/mL in [2]; 0.06 µg/mL in assay [3]; 0.125 µg/mL in [4]; 0.125 µg/mL in assay [5]; 0.06 µg/mL in assay [6].
Turning to `CC(=O)NC[C@H]1CN(c2ccc(-c3ccc(-c4nnn(CCN(C)C)n4)nc3)c(F)c2)C(=O)O1` [AKG-38], the MIC is 0.03 µg/mL (≈ 0.064 µM) in [1]; at most 0.015 µg/mL in assay [2]; 0.03 µg/mL (≈ 0.064 µM) in assay [3]; 0.03 µg/mL (≈ 0.064 µM) in assay [4]; 0.03 µg/mL (≈ 0.064 µM) in assay [5]; 0.03 µg/mL (≈ 0.064 µM) in [6].
Take `CCN(CC)CCn1nnc(-c2ccc(-c3ccc(N4C[C@H](CNC(C)=O)OC4=O)cc3F)cn2)n1` [AKG-39]: the MIC worked out at 0.125 µg/mL (≈ 0.252 µM) in assay [2]; 0.5 µg/mL (≈ 1.01 µM) in assay [3]; 0.5 µg/mL (≈ 1.01 µM) in assay [4]; 1 µg/mL (≈ 2.01 µM) in assay [5]; 0.25 µg/mL (≈ 0.503 µM) in assay [6].
As to `CC[C@@H](CO)NCCN[C@@H](CC)CO` [EMB], the “Drug resistance feature of the strain” value in assay [7] is given as “S”; in assay [8], “S”; in assay [9], “S”; in assay [10], “R”; in assay [11], “S”.
Regarding `NNC(=O)c1ccncc1` [INH], the “Drug resistance feature of the strain” value in assay [7], in assay [8], in assay [9], in assay [10] and in assay [11] was “R” in each case. In addition, the “MIC, µg/mL in M.tuberculosis strain H37Rv” value in [1] is on record as 0.06 µg/mL (≈ 0.438 µM). Moreover, the “MIC, µg/mL in M.tuberculosis strain M70” value in [2] is given as over 2 µg/mL. In addition, the “MIC, µg/mL in M.tuberculosis strain M14” value in assay [3] is recorded as over 2 µg/mL. The “MIC, µg/mL in M.tuberculosis strain M28” value in [4] is recorded as over 2 µg/mL. Moreover, the “MIC, µg/mL in M.tuberculosis strain M94” value in assay [5] is over 2 µg/mL. In addition, the “MIC, µg/mL in M.tuberculosis strain TN5904” value in assay [6] is given as 2 µg/mL (≈ 14.6 µM).
Regarding `CC(=O)NC[C@H]1CN(c2ccc(N3CCOCC3)c(F)c2)C(=O)O1` [Linezolid], the MIC in assay [1] is 2 µg/mL (≈ 5.93 µM); in [2] it was 0.5 µg/mL (≈ 1.48 µM); in assay [3] it was 0.5 µg/mL (≈ 1.48 µM); in assay [4], 0.5 µg/mL (≈ 1.48 µM); in assay [5], 0.5 µg/mL (≈ 1.48 µM); in assay [6], 1 µg/mL (≈ 2.96 µM).
`COc1c(N2C[C@@H]3CCCN[C@@H]3C2)c(F)cc2c(=O)c(C(=O)O)cn(C3CC3)c12` [MOX]: the MIC was 0.125 µg/mL (≈ 0.311 µM) in assay [1]; 1 µg/mL (≈ 2.49 µM) in assay [2]; 0.125 µg/mL (≈ 0.311 µM) in assay [3]; 2 µg/mL (≈ 4.98 µM) in [4]; 0.125 µg/mL (≈ 0.311 µM) in [5]; 0.125 µg/mL (≈ 0.311 µM) in assay [6].
Regarding `NC(=O)c1cnccn1` [PZA], the “Drug resistance feature of the strain” value in assay [7] is “R”; in [8] it was “S”; in assay [9], “R”; in assay [10] it was “R”; in assay [11], “R”.
As to `CO[C@H]1/C=C/O[C@@]2(C)Oc3c(C)c(O)c4c(O)c(c(/C=N/N5CCN(C)CC5)c(O)c4c3C2=O)NC(=O)/C(C)=C\C=C\[C@H](C)[C@H](O)[C@@H](C)[C@@H](O)[C@@H](C)[C@H](OC(C)=O)[C@@H]1C` [RIF], the “Drug resistance feature of the strain” value is given as “R” in assay [7]; “S” in assay [8]; “R” in [9]; “R” in [10]; “S” in assay [11]. For the same molecule, the “MIC, µg/mL in M.tuberculosis strain H37Rv” value in [1] worked out at 0.06 µg/mL (≈ 0.0729 µM). The “MIC, µg/mL in M.tuberculosis strain M70” value in assay [2] is on record as over 8 µg/mL. Besides, the “MIC, µg/mL in M.tuberculosis strain M14” value in assay [3] is on record as 0.06 µg/mL (≈ 0.0729 µM). For the same molecule, the “MIC, µg/mL in M.tuberculosis strain M28” value in assay [4] is recorded as over 8 µg/mL. In assay [6], the “MIC, µg/mL in M.tuberculosis strain TN5904” value is over 8 µg/mL.
For `CN[C@@H]1[C@H](O[C@H]2[C@H](O[C@H]3[C@H](O)[C@@H](O)[C@H](N=C(N)N)[C@@H](O)[C@@H]3N=C(N)N)O[C@@H](C)[C@]2(O)C=O)O[C@@H](CO)[C@H](O)[C@H]1O` [STR], the “Drug resistance feature of the strain” value was “R” in assay [7]; “R” in assay [8]; “R” in assay [9]; “S” in [10]; “R” in [11]. The “MIC, µg/mL in M.tuberculosis strain H37Rv” value in [1] is given as 0.5 µg/mL (≈ 0.86 µM). In addition, the “MIC, µg/mL in M.tuberculosis strain M70” value in assay [2] was 2 µg/mL (≈ 3.44 µM). For the same molecule, the “MIC, µg/mL in M.tuberculosis strain M14” value in assay [3] is recorded as over 8 µg/mL. In assay [4], the “MIC, µg/mL in M.tuberculosis strain M28” value is 0.125 µg/mL (≈ 0.215 µM). In addition, the “MIC, µg/mL in M.tuberculosis strain M94” value in [5] was over 8 µg/mL. In addition, the “MIC, µg/mL in M.tuberculosis strain TN5904” value in assay [6] is 1 µg/mL (≈ 1.72 µM).
